Measured values from patent US20260144788A1, “COMPOUND FOR SHP2 PROTEIN DEGRADATION AND MEDICAL USES THEREOF” (UBIX THERAPEUTICS, INC., priority 2022, published 2026).

Target: T1, SHP2 protein (Homo sapiens, UniProt Q06124)
T1 sequence (Q06124 1-593): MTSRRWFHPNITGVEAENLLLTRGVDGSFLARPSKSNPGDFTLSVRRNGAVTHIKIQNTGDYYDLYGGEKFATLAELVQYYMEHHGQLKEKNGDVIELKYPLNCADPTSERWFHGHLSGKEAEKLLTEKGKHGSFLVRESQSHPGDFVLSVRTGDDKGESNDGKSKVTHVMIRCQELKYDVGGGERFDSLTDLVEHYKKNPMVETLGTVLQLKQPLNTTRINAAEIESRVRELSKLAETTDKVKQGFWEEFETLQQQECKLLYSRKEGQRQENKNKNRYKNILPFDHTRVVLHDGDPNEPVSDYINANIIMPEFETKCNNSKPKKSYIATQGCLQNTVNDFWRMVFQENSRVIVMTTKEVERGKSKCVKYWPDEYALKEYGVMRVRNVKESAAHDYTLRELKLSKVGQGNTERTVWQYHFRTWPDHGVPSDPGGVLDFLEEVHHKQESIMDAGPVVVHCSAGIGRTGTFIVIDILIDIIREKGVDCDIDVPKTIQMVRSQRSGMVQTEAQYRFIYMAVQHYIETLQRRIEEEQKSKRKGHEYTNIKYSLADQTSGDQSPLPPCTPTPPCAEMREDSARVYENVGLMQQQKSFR
Assay: Measurement of SHP2 protein degradation in NCI-H358 cells (western blotting)
Assay type: cell-based
Parameters: endogenous in cells; host or cells: NCI-H358
Conditions: harvested after 24 hours
Outline: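 H358 cells in RPMI1640/25 mM HEPES/10% FBS, cultured 24 h, then exposed to compound at final 0.001, 0.01 and 0.1 μM for 24 h against a DMSO control. Lysates were normalised for protein by BCA and probed by western blot for SHP2, with GAPDH as loading control.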

Row | SHP2% degradation (0.01 μM) [%] | SHP2% degradation (0.1 μM) [%] | Structure (SMILES)
1 | 96.5 | 99.2 | Cc1ncsc1-c1ccc(CNC(=O)[C@@H]2C[C@@H](O)CN2C(=O)[C@@H](n2cc(C3CC3)nn2)C(C)(C)C)c(OC2CCN(C(=O)C3CCN(c4nccc(Sc5cnc(N6CCC(C)(CN)CC6)cn5)c4Cl)CC3)CC2)c1 [Example 107, (2S,4R)—N-(2-((1-(1-(4-((5-(4-(aminomethyl)-4-methylpiperidin-1-yl)pyrazin-2-yl)thio)-3-chloropyridin-2-yl)piperidine-4-carbonyl)piperidin-4-yl)oxy)-4-(4-methylthiazol-5-yl)benzyl)-1-((S)-2-(4-cyclopropyl-1H-1,2,3-triazol-1-yl)-3,3-dimethylbutanoyl)-4-hydroxypyrrolidine-2-carboxamide]
2 | 99.1 | 99.6 | Cc1cn([C@H](C(=O)N2C[C@H](O)C[C@H]2C(=O)NCc2ccc(-c3scnc3C)cc2OC2CCN(C(=O)C3CCN(c4nccc(Sc5cnc(N6CCC(C)(CN)CC6)c(CO)n5)c4Cl)CC3)CC2)C(C)C)nn1 [Example 108, (2S,4R)—N-(2-((1-(1-(4-((5-(4-(aminomethyl)-4-methylpiperidin-1-yl)-6-(hydroxymethyl)pyrazin-2-yl)thio)-3-chloropyridin-2-yl)piperidine-4-carbonyl)piperidin-4-yl)oxy)-4-(4-methylthiazol-5-yl)benzyl)-4-hydroxy-1-((S)-3-methyl-2-(4-methyl-1H-1,2,3-triazol-1-yl)butanoyl)pyrrolidine-2-carboxamide]
3 | 99.0 | 99.4 | Cc1cn([C@H](C(=O)N2C[C@H](O)C[C@H]2C(=O)NCc2ccc(-c3scnc3C)cc2OC2CCN(C(=O)C3CCN(c4nccc(Sc5cnc(N6CCC(C)(N)CC6)c(CO)n5)c4Cl)CC3)CC2)C(C)C)nn1 [Example 109, (2S,4R)—N-(2-((1-(1-(4-((5-(4-amino-4-methylpiperidin-1-yl)-6-(hydroxymethyl)pyrazin-2-yl)thio)-3-chloropyridin-2-yl)piperidine-4-carbonyl)piperidin-4-yl)oxy)-4-(4-methylthiazol-5-yl)benzyl)-4-hydroxy-1-((S)-3-methyl-2-(4-methyl-1H-1,2,3-triazol-1-yl)butanoyl)pyrrolidine-2-carboxamide]
4 | 99.8 | 99.8 | Cc1cn([C@H](C(=O)N2C[C@H](O)C[C@H]2C(=O)NCc2ccc(-c3scnc3C)cc2OC2CCN(C(=O)C3CCN(c4nccc(Sc5cnc(N6CCC7(CC6)CO[C@@H](C)[C@H]7N)c(CO)n5)c4Cl)CC3)CC2)C(C)C)nn1 [Example 110, (2S,4R)—N-(2-((1-(1-(4-((5-((3S,4S)-4-amino-3-methyl-2-oxa-8-azaspiro[4.5]decan-8-yl)-6-(hydroxymethyl)pyrazin-2-yl)thio)-3-chloropyridin-2-yl)piperidine-4-carbonyl)piperidin-4-yl)oxy)-4-(4-methylthiazol-5-yl)benzyl)-4-hydroxy-1-((S)-3-methyl-2-(4-methyl-1H-1,2,3-triazol-1-yl)butanoyl)pyrrolidine-2-carboxamide]
5 | 98.0 | 99.9 | Cc1cn([C@H](C(=O)N2C[C@H](O)C[C@H]2C(=O)NCc2ccccc2OC2CCN(C(=O)C3CCN(c4nccc(Sc5cnc(N6CCC7(CC6)CO[C@@H](C)[C@H]7N)c(CO)n5)c4Cl)CC3)CC2)C(C)C)nn1 [Example 111, (2S,4R)—N-(2-((1-(1-(4-((5-((3S,4S)-4-amino-3-methyl-2-oxa-8-azaspiro[4.5]decan-8-yl)-6-(hydroxymethyl)pyrazin-2-yl)thio)-3-chloropyridin-2-yl)piperidine-4-carbonyl)piperidin-4-yl)oxy)benzyl)-4-hydroxy-1-((S)-3-methyl-2-(4-methyl-1H-1,2,3-triazol-1-yl)butanoyl)pyrrolidine-2-carboxamide]
6 | 93.8 | 99.7 | Cc1cn([C@H](C(=O)N2C[C@H](O)C[C@H]2C(=O)NCc2ccc(Cl)cc2OC2CCN(C(=O)C3CCN(c4nccc(Sc5cnc(N6CCC7(CC6)CO[C@@H](C)[C@H]7N)c(CO)n5)c4Cl)CC3)CC2)C(C)C)nn1 [Example 112, (2S,4R)—N-(2-((1-(1-(4-((5-((3S,4S)-4-amino-3-methyl-2-oxa-8-azaspiro[4.5]decan-8-yl)-6-(hydroxymethyl)pyrazin-2-yl)thio)-3-chloropyridin-2-yl)piperidine-4-carbonyl)piperidin-4-yl)oxy)-4-chlorobenzyl)-4-hydroxy-1-((S)-3-methyl-2-(4-methyl-1H-1,2,3-triazol-1-yl)butanoyl)pyrrolidine-2-carboxamide]
7 | 96.2 | 99.8 | Cc1cn([C@H](C(=O)N2C[C@H](O)C[C@H]2C(=O)NCc2ccc(C#N)cc2OC2CCN(C(=O)C3CCN(c4nccc(Sc5cnc(N6CCC7(CC6)CO[C@@H](C)[C@H]7N)c(CO)n5)c4Cl)CC3)CC2)C(C)C)nn1 [Example 113, (2S,4R)—N-(2-((1-(1-(4-((5-((3S,4S)-4-amino-3-methyl-2-oxa-8-azaspiro[4.5]decan-8-yl)-6-(hydroxymethyl)pyrazin-2-yl)thio)-3-chloropyridin-2-yl)piperidine-4-carbonyl)piperidin-4-yl)oxy)-4-cyanobenzyl)-4-hydroxy-1-((S)-3-methyl-2-(4-methyl-1H-1,2,3-triazol-1-yl)butanoyl)pyrrolidine-2-carboxamide]
8 | 48.3 | 88.1 | Cc1cc(C(C(=O)N2C[C@H](O)C[C@H]2C(=O)NCc2ccc(-c3scnc3C)cc2O[C@H]2CC[C@H](C(=O)N3CC(Nc4cccc(Sc5cnc(N6CCC(C)(CN)CC6)cn5)c4Cl)C3)CC2)C(C)C)on1 (stereo partly drawn) [Example 114, (2S,4R)—N-(2-(((1R,4S)-4-(3-((3-((5-(4-(aminomethyl)-4-methylpiperidin-1-yl)pyrazin-2-yl)thio)-2-chlorophenyl)amino)azetidine-1-carbonyl)cyclohexyl)oxy)-4-(4-methylthiazol-5-yl)benzyl)-4-hydroxy-1-(3-methyl-2-(3-methylisoxazol-5-yl)butanoyl)pyrrolidine-2-carboxamide]
9 | 98.3 | 99.2 | Cc1cc(C(C(=O)N2C[C@H](O)C[C@H]2C(=O)NCc2ccc(-c3scnc3C)cc2O[C@H]2CC[C@H](C(=O)N3CC(Nc4cccc(Sc5cnc(N6CCC(C)(CN)CC6)cn5)c4Cl)C3)CC2)C(C)C)on1 (stereo partly drawn) [Example 115, (2S,4R)—N-(2-(((1R,4S)-4-(3-((3-((5-(4-(aminomethyl)-4-methylpiperidin-1-yl)pyrazin-2-yl)thio)-2-chlorophenyl)amino)azetidine-1-carbonyl)cyclohexyl)oxy)-4-(4-methylthiazol-5-yl)benzyl)-4-hydroxy-1-(3-methyl-2-(3-methylisoxazol-5-yl)butanoyl)pyrrolidine-2-carboxamide]
